Values quoted from earlier work in article PMC8590616 (European Journal of Pharmacology, 2021).

Conditions: standard 12-compounds panel ref Dutta et al., (2017); cited from earlier work

SMILES | Cmax
CN(C)CCCN1c2ccccc2Sc2ccc(Cl)cc21 [Chlorpromazine] | 38 nM
COc1ccc([C@@H]2Sc3ccccc3N(CCN(C)C)C(=O)[C@@H]2OC(C)=O)cc1 [Diltiazem] | 122 nM
Cc1cccc(C)c1OCC(C)N (stereo not shown) [Mexiletine] | 4130 nM
Cc1nccn1CC1CCc2c(c3ccccc3n2C)C1=O (stereo not shown) [Ondansetron] | 139 nM
